Measurements reported in the supplement of paper PMC10307832.

Assays:
Assay in all cases: relative viability (nuclei count vs DMSO), 5 days (fraction); higher = more cells survive
EHT 1864 + Alpelisib = compound: C1COCCN1CC2=CC(=O)C(=CO2)OCCCCCSC3=C4C=CC(=CC4=NC=C3)C(F)(F)F [EHT 1864] + Cc1nc(NC(=O)N2CCC[C@H]2C(N)=O)sc1-c1ccnc(C(C)(C)C(F)(F)F)c1 [Alpelisib] (partner 2 µM)
Summary of the method: (§1)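 Cells from lung cancer lines were seeded into 1536-well plates and, one day later, dosed by pin tool. Treatments were either a single drug or a fixed dose of an anchor drug with five library-drug doses (not always all listed) in √10 steps. After 5 days, nuclei were stained in a one-step fixation (final 0.05% Triton X-100, 1% formaldehyde, 1 ug/ml Hoechst) and counted on 4× images, and relative viability is the treated-to-vehicle nuclei ratio, as the median of duplicate plates.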

EHT 1864 + Pemetrexed = compound: C1COCCN1CC2=CC(=O)C(=CO2)OCCCCCSC3=C4C=CC(=CC4=NC=C3)C(F)(F)F [EHT 1864] + Nc1nc2[nH]cc(CCc3ccc(C(=O)N[C@@H](CCC(=O)O)C(=O)O)cc3)c2c(=O)[nH]1 [Pemetrexed] (partner 0.2 µM)
Summary of the method: as §1

EHT 1864 + Olaparib = compound: C1COCCN1CC2=CC(=O)C(=CO2)OCCCCCSC3=C4C=CC(=CC4=NC=C3)C(F)(F)F [EHT 1864] + O=C(c1cc(Cc2n[nH]c(=O)c3ccccc23)ccc1F)N1CCN(C(=O)C2CC2)CC1 [Olaparib] (partner 8 µM)
Summary of the method: as §1

EHT 1864 + Foretinib = compound: C1COCCN1CC2=CC(=O)C(=CO2)OCCCCCSC3=C4C=CC(=CC4=NC=C3)C(F)(F)F [EHT 1864] + COc1cc2c(Oc3ccc(NC(=O)C4(C(=O)Nc5ccc(F)cc5)CC4)cc3F)ccnc2cc1OCCCN1CCOCC1 [Foretinib] (partner 0.25 µM)
Summary of the method: as §1

Cell Line | relative viability (EHT 1864 + Alpelisib; first compound 0.04 µM) | relative viability (EHT 1864 + Alpelisib; first compound 0.1265 µM) | relative viability (EHT 1864 + Alpelisib; first compound 0.4 µM) | relative viability (EHT 1864 + Alpelisib; first compound 1.265 µM) | relative viability (EHT 1864 + Alpelisib; first compound 4 µM) | relative viability (EHT 1864 + Pemetrexed; first compound 0.04 µM) | relative viability (EHT 1864 + Pemetrexed; first compound 0.1265 µM) | relative viability (EHT 1864 + Pemetrexed; first compound 0.4 µM) | relative viability (EHT 1864 + Pemetrexed; first compound 1.265 µM) | relative viability (EHT 1864 + Pemetrexed; first compound 4 µM) | relative viability (EHT 1864 + Olaparib; first compound 0.04 µM) | relative viability (EHT 1864 + Olaparib; first compound 0.1265 µM) | relative viability (EHT 1864 + Olaparib; first compound 0.4 µM) | relative viability (EHT 1864 + Olaparib; first compound 1.265 µM) | relative viability (EHT 1864 + Olaparib; first compound 4 µM) | relative viability (EHT 1864 + Foretinib; first compound 0.04 µM) | relative viability (EHT 1864 + Foretinib; first compound 0.1265 µM) | relative viability (EHT 1864 + Foretinib; first compound 0.4 µM) | relative viability (EHT 1864 + Foretinib; first compound 1.265 µM) | relative viability (EHT 1864 + Foretinib; first compound 4 µM)
EKVX | 0.894 | 0.836 | 0.875 | 0.871 | 0.795 | 0.362 | 0.381 | 0.404 | 0.34 | 0.495 | 0.741 | 0.823 | 0.806 | 0.83 | 0.788 | 1.09 | 0.758 | 0.715 | 0.661 | 0.592
NCI-H23 | 0.664 | – | 0.781 | 0.738 | 0.807 | 0.715 | 0.549 | 0.632 | 0.671 | 0.748 | 0.295 | 0.271 | 0.284 | 0.296 | 0.32 | 0.92 | 0.959 | 0.889 | 0.956 | 0.923
EMC-BAC-2 | 0.694 | 0.682 | 0.718 | 0.705 | 0.768 | 0.454 | 0.421 | 0.491 | 0.439 | 0.432 | 0.616 | 0.467 | 0.436 | 0.464 | 0.458 | 0.967 | 1.06 | 1.01 | 1.01 | 0.951
LOU-NH91 | 0.739 | 0.7 | 0.793 | 0.736 | 0.624 | 0.347 | 0.382 | 0.396 | 0.421 | 0.391 | 0.917 | 0.858 | 0.911 | 0.949 | 0.885 | 0.956 | 0.874 | 0.922 | 0.96 | 0.814
LU99A | 0.495 | 0.381 | 0.452 | 0.583 | 0.54 | 0.196 | 0.178 | 0.179 | 0.186 | 0.19 | 0.26 | 0.262 | 0.25 | 0.284 | 0.274 | 0.818 | 0.796 | 0.835 | 0.805 | 0.749
NCI-H1395 | 1.54 | 0.942 | 1.01 | 0.967 | 1.38 | 0.923 | 0.73 | 0.89 | 0.805 | 0.915 | 0.472 | 0.548 | 0.48 | 0.488 | 0.459 | 1.03 | 0.924 | 0.897 | 1.02 | 0.859
NCI-H460 | 0.427 | 0.57 | 0.475 | 0.444 | 0.486 | – | 0.0604 | 0.0667 | 0.0607 | 0.0677 | 0.461 | 0.387 | 0.389 | 0.363 | 0.351 | 1 | 0.921 | 1.01 | 1.01 | 0.853
201T | 1.02 | 1.08 | 0.977 | 0.982 | 1.01 | 0.346 | 0.326 | 0.351 | 0.266 | 0.291 | 0.821 | 0.794 | 0.856 | 0.73 | 0.81 | 0.964 | 1.05 | 1.16 | 0.99 | 1.08
NCI-H2170 | 0.751 | 0.759 | 0.771 | 0.793 | 0.793 | 0.279 | 0.251 | 0.262 | 0.279 | 0.266 | 0.595 | 0.628 | 0.61 | 0.581 | 0.547 | 1.01 | 1.01 | 0.998 | 0.943 | 1
NCI-H2405 | 0.789 | 0.767 | 0.877 | – | 0.719 | 1.13 | 0.945 | 1.03 | 1.07 | 0.973 | 0.895 | 0.815 | 0.912 | 0.788 | 0.853 | 1.05 | 1.05 | 1.07 | 0.999 | 1.13
NCI-H1755 | 0.897 | 0.844 | 0.861 | 0.945 | 0.877 | 0.477 | 0.376 | 0.389 | 0.468 | 0.388 | 0.912 | 0.817 | 0.822 | 0.817 | 0.829 | 0.914 | 0.872 | 0.876 | 0.844 | 0.803
NCI-H2087 | 0.929 | 1 | 0.902 | 1.1 | 0.802 | 0.691 | – | 0.596 | 0.642 | 0.657 | 0.545 | – | 0.468 | 0.545 | 0.534 | 1.01 | – | 1 | 1.01 | 0.845
NCI-H2228 | 0.776 | 0.813 | 0.732 | 0.594 | 0.713 | 0.323 | 0.341 | 0.318 | – | 0.34 | 0.614 | 0.661 | 0.66 | – | 0.61 | 0.81 | 0.758 | 0.904 | 0.836 | 0.9
NCI-H650 | 1.05 | – | 1.23 | 1.02 | 1.09 | 0.975 | 0.75 | 0.968 | 0.947 | 0.927 | 0.425 | 0.386 | 0.383 | 0.39 | 0.413 | 0.99 | 0.859 | 0.97 | 1.03 | 0.99
NCI-H520 | 0.967 | 0.954 | 0.883 | 0.889 | 0.876 | 0.67 | 0.588 | 0.758 | 0.627 | 0.604 | 0.271 | 0.318 | 0.354 | 0.419 | 0.351 | 0.56 | 0.734 | 0.736 | 0.697 | 0.744
NCI-H661 | 0.596 | 0.672 | 0.527 | 0.465 | 0.531 | 0.904 | 0.884 | 0.871 | 0.844 | 0.682 | 0.799 | 0.685 | 0.684 | 0.606 | 0.567 | 1.03 | 0.956 | 0.993 | 0.986 | 0.817
LK-2 | 1.19 | 0.972 | 1.07 | 1.14 | 0.499 | 0.305 | – | 0.259 | 0.288 | 0.25 | 0.518 | 0.608 | 0.608 | 0.551 | 0.68 | 1.14 | – | 0.919 | 0.982 | 1.35
NCI-H1993 | 0.733 | 0.658 | 0.568 | 0.679 | 0.732 | 0.58 | – | 0.595 | 0.623 | 0.556 | 1.17 | – | 0.971 | 0.966 | 1.05 | 0.741 | – | 0.748 | 0.75 | 0.744
NCI-H838 | 0.969 | 0.881 | 0.988 | 0.921 | 0.827 | 0.249 | 0.236 | 0.236 | 0.233 | 0.219 | 0.743 | 0.726 | 0.788 | 0.79 | 0.807 | 0.88 | 0.864 | 1.05 | 0.95 | 1.01
NCI-H1437 | 0.988 | 1.04 | 0.899 | 0.805 | 0.652 | 0.321 | 0.302 | 0.263 | 0.286 | 0.246 | 0.621 | 0.587 | 0.622 | 0.523 | 0.523 | 1.31 | 1.22 | 1.2 | 1.03 | 0.824
NCI-H358 | 0.798 | – | 0.877 | 0.965 | 0.837 | 0.173 | 0.169 | 0.178 | 0.189 | 0.168 | 0.626 | 0.594 | 0.574 | 0.551 | 0.548 | 0.689 | 0.613 | 0.848 | 0.637 | 0.621
LCLC-103H | 1.05 | 0.888 | 0.956 | 1.03 | 1.07 | 0.431 | 0.45 | 0.506 | 0.468 | 0.5 | 0.742 | 0.694 | 0.739 | 0.718 | 0.734 | 0.791 | 0.618 | 0.736 | 0.637 | 0.733
NCI-H441 | 0.73 | 0.644 | 0.532 | 0.779 | 0.729 | 0.28 | – | 0.286 | 0.241 | 0.255 | 0.562 | – | 0.503 | 0.477 | 0.617 | 0.953 | 1.03 | 1 | 0.942 | 0.984
SK-LU-1 | 1.02 | 1.02 | 0.928 | 0.996 | 0.815 | 0.982 | 0.935 | 1.03 | 0.872 | 0.901 | 0.464 | 0.515 | 0.471 | 0.451 | 0.447 | 0.843 | 0.772 | 0.779 | 0.775 | 0.746
BEN | 0.941 | 0.825 | 0.92 | 0.938 | 1.1 | 0.763 | 0.678 | 0.908 | 0.697 | 0.715 | 1.06 | 0.982 | 0.836 | 0.914 | 1 | 0.702 | 0.585 | 0.827 | 0.484 | 0.771
LC-2-ad | 0.837 | – | 0.831 | 0.9 | 0.82 | 0.265 | 0.271 | 0.247 | 0.274 | 0.308 | 0.602 | 0.671 | 0.657 | 0.671 | 0.625 | 0.859 | – | 0.905 | 1.01 | 0.962
COR-L23 | 0.832 | 0.878 | 0.815 | 0.855 | 0.76 | 0.197 | 0.193 | 0.196 | 0.194 | 0.214 | 0.35 | 0.359 | 0.314 | 0.392 | 0.213 | 1.01 | 0.922 | 1 | 0.948 | 0.86
